The values below come from patent publication US6893829B2, “Human leukocyte 12-lipoxygenase and its role in the pathogenesis of disease states” (City of Hope, priority 1992, dated 2005).

The experiment deals with leukocyte 12-LO protein in HSMC. Description: 12-LO protein expression in HSMC (Western immunoblotting). Format: cell-based, human. The method, then:
FIGS. 4A and 4B illustrate the regulation of leukocyte 12-LO protein expression by AII in HSMC. FIG. 4A is an immunoblot showing regulation by AII. FIG. 4B is a bar graph representation of densitometric analysis of immunoblot in FIG. 4A. Cells were grown in medium 199 containing 20% FBS and serum-depleted for 24 hours by placing in medium 199 containing 0.4% FBS and 0.2% BSA. Cells were treated with AII at the concentration of 2×10^−7 mol/L for 24 to 48 hours. Cells were washed with PBS and harvested by scraping. Cell pellets were lysed and cytosol fractions were electrophoresed. […]
SDS polyacrylamide gel electrophoresis (10% running gel, 4% stacking gel) was performed according to the method of Laemmli (24). […] Nonspecific binding was evaluated using normal rabbit serum. Western blots were quantitated using a computerized video densitometer (Applied Imagining, Santa Clara, Calif.; Lynx DNA vision) and values expressed as arbitrary absorbance units.
To examine whether AII induces the 12-LO enzyme expression in HSMC, cells were treated with AII at the concentration of 2×10^−7 mol/L for 24 or 48 hours. […] A distinct band was detected with a molecular weight of nearly 72 kD which is the reported molecular weight of the porcine leukocyte-type of 12-LO (FIG. 4). […]
(A western blot detects proteins with antibodies after separation by electrophoresis.)

For “Angiotensin II (DRVYIHPF; Angiotensin-2; UniProt P01019 25-32, looked up) [AII, peptide hormone, added to cells as stimulus]”, the “increase in 12-LO protein expression” value (AII 2×10^−7 mol/L, 24 hour, serum free media) is “seven”. Moreover, under “AII, 48 hours, data not shown”, the 12-LO expression induction is given as 4-7 fold.
